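These data come from cells grown in 96-well plates and exposed to compound for 48 hours at five concentrations. The concentration for full growth arrest is given as TGI.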 A value given as a limit tells only on which side of the number the result lay.

The results in this text go back to PubChem BioAssay (NCI).

The subject of the first assay is SW-620 colon. Put plainly: growth of human tumour cells (NCI), 48 h.
`COc1ccc(CN(Cc2ccc(OC)cc2)C(=O)CC2(O)C=CCC2)cc1` (centres undefined): the TGI is > 100 µM.

On to `COc1ccc(OC)c(C2Cc3cnc4nc(N)nc(N)c4c3C2)c1` (centres undefined), for which the TGI was > 100 µM.

For the compound `CC(C)(C)c1cc(C(=O)/C=C/C=C/c2ccccc2)cc(C(C)(C)C)c1O`, the TGI was 41.4 µM.

For the compound `N#C/C(N)=C(\C#N)NC=NCc1ccccc1`, the TGI is > 100 µM.

In the case of `O=[N+]([O-])c1ccc(S(=O)(=O)N=Ic2ccccc2)cc1`, the TGI is > 100 µM.

Take `O=C(O)CCN(CCC(=O)O)c1ccc(/C=C2\SC(=S)NC2=O)cc1`: the TGI is > 100 µM.

In the case of `O=C1C[C@H]2[C@@H](O1)[C@@H](O)CN1C(=O)c3ccccc3[C@H]21`, the TGI is > 100 µM.

In the case of `CCO/C=N/NC(=O)CSc1nc2ccc(I)cc2c(=O)n1Cc1ccccc1`, the TGI was > 100 µM.

Consider `COc1ccc(OC)c(N2C(=O)CSC2c2cc(OC)c(OC)c(OC)c2)c1` (centres undefined), for which the TGI was > 100 µM.

`CCOC(=O)c1ccc(C(=O)/C(C#N)=C2\CCCN2C)[nH]1`: the TGI is > 100 µM.

Consider `S=c1[nH]n2c(COc3cccc(OCc4nnc5sc(=S)[nH]n45)c3)nnc2s1`, for which the TGI is > 100 µM.

Turning to `CCOC(=O)C1=C(N)Oc2ccc(Br)cc2C1C(C#N)C(=O)OCC` (centres undefined), the TGI was 43.2 µM.

Turning to `O=C(CCc1cc(O)cc(O)c1)NCCc1cc(O)cc(O)c1`, the TGI was > 100 µM.

As for `Cc1cc(OCc2nnc3n2N=C(c2cc(F)c(Cl)cc2Cl)/C(=C/c2ccc(Cl)cc2)S3)ccc1Cl`, the TGI came out at 38.5 µM.

A further assay has as its system OVCAR-5 ovarian. Nature of the assay: growth of human tumour cells (NCI), 48 h.
In the case of `COc1ccc(CN(Cc2ccc(OC)cc2)C(=O)CC2(O)C=CCC2)cc1` (centres undefined), the TGI is > 100 µM.

Compound `COc1ccc(OC)c(C2Cc3cnc4nc(N)nc(N)c4c3C2)c1` (centres undefined) had a TGI of 97.1 µM.

As for `CC(C)(C)c1cc(C(=O)/C=C/C=C/c2ccccc2)cc(C(C)(C)C)c1O`, the TGI was > 87 µM.

Regarding `N#C/C(N)=C(\C#N)NC=NCc1ccccc1`, the TGI was > 100 µM.

For `O=[N+]([O-])c1ccc(S(=O)(=O)N=Ic2ccccc2)cc1`, the TGI was > 100 µM.

Consider `O=C(O)CCN(CCC(=O)O)c1ccc(/C=C2\SC(=S)NC2=O)cc1`, for which the TGI was > 100 µM.

Turning to `O=C1C[C@H]2[C@@H](O1)[C@@H](O)CN1C(=O)c3ccccc3[C@H]21`, the TGI was > 100 µM.

Take `CCO/C=N/NC(=O)CSc1nc2ccc(I)cc2c(=O)n1Cc1ccccc1`: the TGI was > 100 µM.

As for `COc1ccc(OC)c(N2C(=O)CSC2c2cc(OC)c(OC)c(OC)c2)c1` (centres undefined), the TGI is > 100 µM.

Take `CCOC(=O)c1ccc(C(=O)/C(C#N)=C2\CCCN2C)[nH]1`: the TGI is > 100 µM.

As to `S=c1[nH]n2c(COc3cccc(OCc4nnc5sc(=S)[nH]n45)c3)nnc2s1`, the TGI is > 100 µM.

Compound `CCOC(=O)C1=C(N)Oc2ccc(Br)cc2C1C(C#N)C(=O)OCC` (centres undefined) registered a TGI of 66.3 µM.

For `O=C(CCc1cc(O)cc(O)c1)NCCc1cc(O)cc(O)c1`, the TGI was > 100 µM.

In the case of `Cc1cc(OCc2nnc3n2N=C(c2cc(F)c(Cl)cc2Cl)/C(=C/c2ccc(Cl)cc2)S3)ccc1Cl`, the TGI amounted to 95.5 µM.

The test system of another assay is U251 CNS. Nature of the assay: growth of human tumour cells (NCI), 48 h.
On to `COc1ccc(CN(Cc2ccc(OC)cc2)C(=O)CC2(O)C=CCC2)cc1` (centres undefined), for which the TGI was > 100 µM.

As to `COc1ccc(OC)c(C2Cc3cnc4nc(N)nc(N)c4c3C2)c1` (centres undefined), the TGI was found to be 47.3 µM.

Compound `CC(C)(C)c1cc(C(=O)/C=C/C=C/c2ccccc2)cc(C(C)(C)C)c1O` had a TGI of 33.5 µM.

`N#C/C(N)=C(\C#N)NC=NCc1ccccc1`: the TGI was > 100 µM.

For `O=[N+]([O-])c1ccc(S(=O)(=O)N=Ic2ccccc2)cc1`, the TGI is > 100 µM.

For the compound `O=C(O)CCN(CCC(=O)O)c1ccc(/C=C2\SC(=S)NC2=O)cc1`, the TGI is > 100 µM.

As for `O=C1C[C@H]2[C@@H](O1)[C@@H](O)CN1C(=O)c3ccccc3[C@H]21`, the TGI is > 100 µM.

Turning to `CCO/C=N/NC(=O)CSc1nc2ccc(I)cc2c(=O)n1Cc1ccccc1`, the TGI was > 100 µM.

`COc1ccc(OC)c(N2C(=O)CSC2c2cc(OC)c(OC)c(OC)c2)c1` (centres undefined): the TGI was > 100 µM.

`CCOC(=O)c1ccc(C(=O)/C(C#N)=C2\CCCN2C)[nH]1`: the TGI is > 100 µM.

`S=c1[nH]n2c(COc3cccc(OCc4nnc5sc(=S)[nH]n45)c3)nnc2s1`: the TGI is > 100 µM.

Regarding `CCOC(=O)C1=C(N)Oc2ccc(Br)cc2C1C(C#N)C(=O)OCC` (centres undefined), the TGI turned out to be 33.8 µM.

Consider `O=C(CCc1cc(O)cc(O)c1)NCCc1cc(O)cc(O)c1`, for which the TGI was > 100 µM.

`Cc1cc(OCc2nnc3n2N=C(c2cc(F)c(Cl)cc2Cl)/C(=C/c2ccc(Cl)cc2)S3)ccc1Cl` displayed a TGI of 43.4 µM.

The subject of another assay is SF-295 CNS. Nature of the assay: growth of human tumour cells (NCI), 48 h.
Take `COc1ccc(CN(Cc2ccc(OC)cc2)C(=O)CC2(O)C=CCC2)cc1` (centres undefined): the TGI is > 100 µM.

As for `COc1ccc(OC)c(C2Cc3cnc4nc(N)nc(N)c4c3C2)c1` (centres undefined), the TGI turned out to be 93.7 µM.

`CC(C)(C)c1cc(C(=O)/C=C/C=C/c2ccccc2)cc(C(C)(C)C)c1O`: the TGI is > 100 µM.

As for `N#C/C(N)=C(\C#N)NC=NCc1ccccc1`, the TGI was > 100 µM.

Take `O=[N+]([O-])c1ccc(S(=O)(=O)N=Ic2ccccc2)cc1`: the TGI was > 100 µM.

Take `O=C(O)CCN(CCC(=O)O)c1ccc(/C=C2\SC(=S)NC2=O)cc1`: the TGI was > 100 µM.

Take `O=C1C[C@H]2[C@@H](O1)[C@@H](O)CN1C(=O)c3ccccc3[C@H]21`: the TGI was > 100 µM.

Turning to `CCO/C=N/NC(=O)CSc1nc2ccc(I)cc2c(=O)n1Cc1ccccc1`, the TGI is > 100 µM.

On to `COc1ccc(OC)c(N2C(=O)CSC2c2cc(OC)c(OC)c(OC)c2)c1` (centres undefined), for which the TGI is > 100 µM.

In the case of `CCOC(=O)c1ccc(C(=O)/C(C#N)=C2\CCCN2C)[nH]1`, the TGI was > 100 µM.

In the case of `S=c1[nH]n2c(COc3cccc(OCc4nnc5sc(=S)[nH]n45)c3)nnc2s1`, the TGI is > 100 µM.

For the compound `CCOC(=O)C1=C(N)Oc2ccc(Br)cc2C1C(C#N)C(=O)OCC` (centres undefined), the TGI is > 100 µM.

With `O=C(CCc1cc(O)cc(O)c1)NCCc1cc(O)cc(O)c1`, the TGI was > 100 µM.

For the compound `Cc1cc(OCc2nnc3n2N=C(c2cc(F)c(Cl)cc2Cl)/C(=C/c2ccc(Cl)cc2)S3)ccc1Cl`, the TGI was > 100 µM.

A further assay deals with TK-10 renal. Nature of the assay: growth of human tumour cells (NCI), 48 h.
As to `COc1ccc(CN(Cc2ccc(OC)cc2)C(=O)CC2(O)C=CCC2)cc1` (centres undefined), the TGI was > 100 µM.

In turn, `COc1ccc(OC)c(C2Cc3cnc4nc(N)nc(N)c4c3C2)c1` (centres undefined) had a TGI of 79.8 µM.

Compound `CC(C)(C)c1cc(C(=O)/C=C/C=C/c2ccccc2)cc(C(C)(C)C)c1O` came in with a TGI of 59.2 µM.

As for `N#C/C(N)=C(\C#N)NC=NCc1ccccc1`, the TGI is > 100 µM.

`O=[N+]([O-])c1ccc(S(=O)(=O)N=Ic2ccccc2)cc1`: the TGI is > 100 µM.

`O=C(O)CCN(CCC(=O)O)c1ccc(/C=C2\SC(=S)NC2=O)cc1`: the TGI was > 100 µM.

For the compound `O=C1C[C@H]2[C@@H](O1)[C@@H](O)CN1C(=O)c3ccccc3[C@H]21`, the TGI is > 100 µM.

`CCO/C=N/NC(=O)CSc1nc2ccc(I)cc2c(=O)n1Cc1ccccc1`: the TGI is > 100 µM.

With `COc1ccc(OC)c(N2C(=O)CSC2c2cc(OC)c(OC)c(OC)c2)c1` (centres undefined), the TGI was > 100 µM.

`CCOC(=O)c1ccc(C(=O)/C(C#N)=C2\CCCN2C)[nH]1`: the TGI was > 100 µM.

Turning to `S=c1[nH]n2c(COc3cccc(OCc4nnc5sc(=S)[nH]n45)c3)nnc2s1`, the TGI is > 100 µM.

Take `CCOC(=O)C1=C(N)Oc2ccc(Br)cc2C1C(C#N)C(=O)OCC` (centres undefined): the TGI was found to be 36.2 µM.

For `O=C(CCc1cc(O)cc(O)c1)NCCc1cc(O)cc(O)c1`, the TGI was > 100 µM.
